Measured values: patent publication US20150352108A1, “AMINO-PYRIMIDINE COMPOUNDS AS INHIBITORS OF TBK1 AND/OR IKK EPSILON” (Alzheimer's Institute of America, priority 2009, published 2015)
Read-outs that look alike come from different tables or passages of the source.

Tests used:
IKKε = molecular target: T1, IKKε (Homo sapiens, UniProt Q14164); assay: In-vitro IKKε kinase assay ([γ33]ATP filter-plate); format: biochemical
T1 construct: His-tag; made in house; host or cells: Sf9 insect cells
T1 sequence (Q14164 1-716): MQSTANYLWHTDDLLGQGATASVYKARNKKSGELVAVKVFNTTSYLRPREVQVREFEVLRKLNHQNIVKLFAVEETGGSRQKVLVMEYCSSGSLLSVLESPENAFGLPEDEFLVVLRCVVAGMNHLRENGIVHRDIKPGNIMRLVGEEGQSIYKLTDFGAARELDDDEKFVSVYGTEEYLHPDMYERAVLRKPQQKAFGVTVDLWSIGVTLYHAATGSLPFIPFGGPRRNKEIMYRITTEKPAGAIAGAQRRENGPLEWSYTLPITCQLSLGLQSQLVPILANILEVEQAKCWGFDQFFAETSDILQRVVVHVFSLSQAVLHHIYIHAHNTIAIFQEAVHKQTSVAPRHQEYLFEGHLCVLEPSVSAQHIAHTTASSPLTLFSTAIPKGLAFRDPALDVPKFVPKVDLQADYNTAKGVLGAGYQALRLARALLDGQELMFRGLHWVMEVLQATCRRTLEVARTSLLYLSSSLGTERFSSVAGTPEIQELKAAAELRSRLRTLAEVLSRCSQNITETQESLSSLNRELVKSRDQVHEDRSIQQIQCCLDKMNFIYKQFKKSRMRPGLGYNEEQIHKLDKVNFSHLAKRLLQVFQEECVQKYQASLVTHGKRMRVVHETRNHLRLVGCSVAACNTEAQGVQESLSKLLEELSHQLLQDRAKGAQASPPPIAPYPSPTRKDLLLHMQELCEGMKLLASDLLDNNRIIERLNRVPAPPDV
Method in brief: (§1)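 His-tagged IKKε and TBK1 from Sf9 cells were assayed with myelin basic protein or casein and [γ33]ATP at 2×Km ATP (32 μM for IKKε, 60 μM for TBK1). Enzyme was 0.1 or 0.015 μg/ml for IKKε and 0.1 or 0.02 μg/ml for TBK1 (normal/sensitized). Reactions ran 30-45 min, were filter-captured, scintillation-counted, and normalized to DMSO after background subtraction.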

TBK1 = molecular target: T2, TBK1 (Homo sapiens, UniProt Q9UHD2); assay: In-vitro TBK1 kinase assay ([γ33]ATP filter-plate); format: biochemical
T2 construct: His-tag; made in house; host or cells: Sf9 insect cells
T2 sequence (Q9UHD2 1-729): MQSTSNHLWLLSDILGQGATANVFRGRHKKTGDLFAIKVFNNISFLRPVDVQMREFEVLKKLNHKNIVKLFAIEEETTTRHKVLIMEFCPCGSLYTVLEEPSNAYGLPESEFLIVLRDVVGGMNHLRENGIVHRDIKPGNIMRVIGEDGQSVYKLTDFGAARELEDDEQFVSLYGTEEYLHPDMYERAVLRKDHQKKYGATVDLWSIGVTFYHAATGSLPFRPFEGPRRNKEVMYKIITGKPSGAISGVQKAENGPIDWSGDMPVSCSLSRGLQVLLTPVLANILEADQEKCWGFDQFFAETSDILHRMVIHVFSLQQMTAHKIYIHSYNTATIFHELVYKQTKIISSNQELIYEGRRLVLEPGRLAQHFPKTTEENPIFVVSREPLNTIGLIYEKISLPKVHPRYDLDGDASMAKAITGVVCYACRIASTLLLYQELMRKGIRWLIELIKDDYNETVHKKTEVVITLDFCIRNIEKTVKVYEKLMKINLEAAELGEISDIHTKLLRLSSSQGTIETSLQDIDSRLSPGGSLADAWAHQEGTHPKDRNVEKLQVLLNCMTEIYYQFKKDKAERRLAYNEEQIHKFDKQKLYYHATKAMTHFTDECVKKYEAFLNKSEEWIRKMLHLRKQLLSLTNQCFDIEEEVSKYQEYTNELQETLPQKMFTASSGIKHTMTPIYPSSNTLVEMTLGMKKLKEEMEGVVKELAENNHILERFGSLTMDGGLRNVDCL
Method in brief: as §1

[1] = text bins, read-out: IC50 for inhibition of the kinase activity of IKKε
[2] = text bins, read-out: IC50 for inhibition of the kinase activity of TBK1

Row | Compound | IC50 (IKKε; [1]) [nM] | IC50 (TBK1; [2]) [nM] | IC50 (IKKε; Table 3, read-out: IKKε IC50) [nM] | IC50 (TBK1; Table 3, read-out: TBK1 IC50) [nM]
1 | COc1cc(Nc2nccc(-c3ccc(OC4CCOCC4)c(C#N)c3)n2)ccc1S(=O)(=O)N1CCCC1 [compound 394, 5-(2-{[3-methoxy-4-(pyrrolidin-1-ylsulfonyl)phenyl]amino}pyrimidin-4-yl)-2-(tetrahydro-2H-pyran-4-yloxy)benzonitrile] | < 5 | < 10 |  | 
2 | N#Cc1cc(-c2ccnc(Nc3ccc(F)c(OCCN4CCNCC4)c3)n2)ccc1OCC1CC1 [compound 654, 2-(Cyclopropylmethoxy)-5-[2-({4-fluoro-3-[2-(piperazin-1-yl)ethoxy]phenyl}amino)pyrimidin-4-yl]benzonitrile] | < 5 | < 10 |  | 
3 | N#Cc1cc(-c2ccnc(Nc3ccc(N4CCOCC4)cc3)n2)ccc1OCC1CCN(C(=O)CO)CC1 [Example 233, 2-{[1-(hydroxyacetyl)piperidin-4-yl]methoxy}-5-(2-{[4-(morpholin-4-yl)phenyl]amino}pyrimidin-4-yl)benzonitrile] | 5 to 50 | < 10 |  | 
4 | N#Cc1cc(-c2ccnc(Nc3ccc(N4CCOCC4)cc3)n2)ccc1OC1CCN(C(=O)CN)CC1 [Example 268, 2-[(1-Glycylpiperidin-4-yl)oxy]-5-(2-{[4-(morpholin-4-yl)phenyl]amino}pyrimidin-4-yl)benzonitrile] | 5 to 50 | < 10 |  | 
5 | N#Cc1cc(-c2ccnc(Nc3ccc(N4CCOCC4)cc3)n2)ccc1OC1CCN(C(=O)CCO)CC1 [Example 215, 2-{[1-(3-Hydroxypropanoyl)piperidin-4-yl]oxy}-5-(2-{[4-(morpholin-4-yl)phenyl]amino}pyrimidin-4-yl)benzonitrile] | 5 to 50 | < 10 |  | 
6 | CC(C)C(=O)Nc1ccc(-c2ccnc(Nc3ccc(N4CCN(CCO)CC4)cc3)n2)cc1C#N [compound 427, N-{2-cyano-4-[2-({4-[4-(2-hydroxyethyl)piperazin-1-yl]phenyl}amino)pyrimidin-4-yl]phenyl}-2-methylpropanamide] | 5 to 50 | < 10 |  | 
7 | COc1ccc(Nc2nc(-c3cccc(C#N)c3)c3nc[nH]c3n2)cc1OC [compound 390, 3-{2-[(3,4-Dimethoxyphenyl)amino]-3H-purin-6-yl}benzonitrile] | 50 to 500 | 100 to 500 |  | 
8 | N#Cc1cccc(-c2ccnc(Nc3cccc(NC(=O)NC4CCCC4)c3)n2)c1 [Example 201, 1-(3-{[4-(3-Cyanophenyl)pyrimidin-2-yl]amino}phenyl)-3-cyclopentylurea] | 5 to 50 | 10 to 100 |  | 
9 | COc1cc(Nc2nccc(-c3ccc(OC4CCOCC4)c(C#N)c3)n2)ccc1OCCOCCNS(=O)(=O)N(C)C [Example 26, N′-(2-{2-[4-({4-[3-cyano-4-(tetrahydro-2H-pyran-4-yloxy)phenyl]pyrimidin-2-yl}amino)-2-methoxyphenoxy]ethoxy}ethyl)-N,N-dimethylsulfuric diamide] | < 5 | < 10 |  | 
10 | COc1ccc(-c2ccnc(Nc3ccc(N4CCN(C)CC4)cc3)n2)cc1C#N [compound 297, 2-Methoxy-5-(2-{[4-(4-methylpiperazin-1-yl)phenyl]amino}pyrimidin-4-yl)benzonitrile] | 5 to 50 | < 10 |  | 
11 | COc1cc(Nc2nccc(-c3ccc(OC(C)C)c(C#N)c3)n2)cc(OC)c1 [Example 272, 5-{2-[(3,5-Dimethoxyphenyl)amino]pyrimidin-4-yl}-2-(propan-2-yloxy)benzonitrile] | 5 to 50 | 10 to 100 |  | 
12 | COc1cc(Nc2nccc(-c3ccc(OC)c(C#N)c3)n2)cc(C(=O)O)c1 [compound 305] | 5 to 50 | 10 to 100 |  | 
13 | COc1cc(NC(=O)NCCCO)cc(Nc2nccc(-c3ccc(OC)c(C#N)c3)n2)c1 [compound 315, 1-(3-{[4-(3-Cyano-4-methoxyphenyl)pyrimidin-2-yl]amino}-5-methoxyphenyl)-3-(3-hydroxypropyl)urea] | 5 to 50 | < 10 |  | 
14 | COC1CN(c2cc(Nc3nccc(-c4ccc(OC5CCOCC5)c(C#N)c4)n3)ccc2C)C1 [compound 572, 5-(2-{[3-(3-Methoxyazetidin-1-yl)-4-methylphenyl]amino}pyrimidin-4-yl)-2-(tetrahydro-2H-pyran-4-yloxy)benzonitrile] | < 5 | < 10 |  | 
15 | COC(=O)C(C)Oc1ccc(-c2ccnc(Nc3ccc(N4CCOCC4)cc3)n2)cc1C#N (centres unmarked) [Example 63, Methyl 2-[2-cyano-4-(2-{[4-(morpholin-4-yl)phenyl]amino}pyrimidin-4-yl)phenoxy] propanoate] | 5 to 50 | 10 to 100 |  | 
16 | COc1cc(NC(=O)NC2CCN(C(C)=O)CC2)cc(Nc2nccc(-c3ccc(OC)c(C#N)c3)n2)c1 [compound 344, 1-(1-Acetylpiperidin-4-yl)-3-(3-{[4-(3-cyano-4-methoxyphenyl)pyrimidin-2-yl]amino}-5-methoxyphenyl)urea] | 5 to 50 | 10 to 100 |  | 
17 | COc1ccc(-c2ccnc(Nc3ccc(CN4CCN(C)CC4)cc3)n2)cc1C#N [compound 337, 2-Methoxy-5-[2-({4-[(4-methylpiperazin-1-yl)methyl]phenyl}amino)pyrimidin-4-yl]benzonitrile] | 5 to 50 | 10 to 100 |  | 
18 | N#Cc1cc(-c2ccnc(Nc3cccc(N4CCOCC4)c3)n2)ccc1OC1CCOCC1 [compound 585, 5-(2-{[3-(Morpholin-4-yl)phenyl]amino}pyrimidin-4-yl)-2-(tetrahydro-2H-pyran-4-yloxy)benzonitrile] | < 5 | < 10 | 0.4 | 1.9
19 | COc1cc(NC(=O)NC[C@@H](C)O)cc(Nc2nccc(-c3ccc(OC)c(C#N)c3)n2)c1 [compound 343, 1-(3-{[4-(3-Cyano-4-methoxyphenyl)pyrimidin-2-yl]amino}-5-methoxyphenyl)-3-[(2R)-2-hydroxypropyl]urea] | 5 to 50 | < 10 |  | 
20 | COc1cc(N)cc(Nc2nccc(-c3ccc(OC)c(C#N)c3)n2)c1 [compound 358, 5-{2-[(3-Amino-5-methoxyphenyl)amino]pyrimidin-4-yl}-2-methoxybenzonitrile] | 5 to 50 | 10 to 100 |  | 
21 | CC(C)C(=O)Nc1ccc(-c2ccnc(Nc3ccc(CN4CCOCC4)cc3)n2)cc1C#N [compound 428, N-[2-cyano-4-(2-{[4-(morpholin-4-ylmethyl)phenyl]amino}pyrimidin-4-yl)phenyl]-2-methylpropanamide] | 5 to 50 | 10 to 100 |  | 
22 | COc1cc(Nc2nccc(-c3ccc(OC4CCOCC4)c(C#N)c3)n2)ccc1OCCCS(=O)(=O)N1CCOCC1 [Example 28, 5-[2-({3-methoxy-4-[3-(morpholin-4-ylsulfonyl)propoxy]phenyl}amino)pyrimidin-4-yl]-2-(tetrahydro-2H-pyran-4-yloxy)benzonitrile] | < 5 | < 10 |  | 
23 | CC(C)Oc1ccc(-c2ccnc(Nc3ccc(N4CCN(C)CC4)cc3)n2)cc1C#N [compound 335, 5-(2-{[4-(4-Methylpiperazin-1-yl)phenyl]amino}pyrimidin-4-yl)-2-(propan-2-yloxy)benzonitrile] | < 5 | < 10 |  | 
24 | COC1CN(Cc2ccc(Nc3nccc(-c4ccc(NC(=O)C5CC5)c(C#N)c4)n3)cc2)C1 [compound 634, N-{2-Cyano-4-[2-({4-[(3-methoxyazetidin-1-yl)methyl]phenyl}amino)pyrimidin-4-yl]phenyl} cyclopropane-carboxamide] | 5 to 50 | 10 to 100 |  | 
